# Source: ChEMBL document CHEMBL1146137, “Synthesis and evaluation of febrifugine analogues as potential antimalarial agents” (Bioorg Med Chem Lett, 2006)
# How the values were obtained:
# Plasmodium falciparum [1] = experiment: Antimalarial activity against chloroquine-sensitive Plasmodium falciparum D6; type: functional, organism-based
# Plasmodium falciparum [2] = experiment: Antimalarial activity against chloroquine-resistant Plasmodium falciparum W2; type: functional, organism-based
# Hepatocyte = experiment: Cytotoxicity against rat hepatocytes; type: functional, cell-based
Compound,IC50 (Plasmodium falciparum [1]) [nM],IC50 (Plasmodium falciparum [2]) [nM],IC50 (Hepatocyte) [nM]
Cc1ccc2c(=O)n(CC(=O)C[C@H]3NCCC[C@@H]3O)cnc2c1,2,2.2,117
CC(C)(C)c1cccc2ncn(CC(=O)C[C@H]3NCCC[C@@H]3O)c(=O)c12,132,160,70000
O=C(C[C@H]1NCCC[C@@H]1O)Cn1cnc2ccc(C(F)(F)F)cc2c1=O,14,16,15000
O=C(C[C@H]1NCCC[C@@H]1O)Cn1cnc2ccncc2c1=O,1.5,1.8,17000
O=C(C[C@H]1NCCC[C@@H]1O)Cn1cnc2cccc(C(F)(F)F)c2c1=O,0.43,0.41,19000
COc1cccc2c(=O)n(CC(=O)C[C@H]3NCCC[C@@H]3O)cnc12,1.2,1.3,16
COc1ccc2c(=O)n(CC(=O)C[C@H]3NCCC[C@@H]3O)cnc2c1,1.4,1.3,15
O=C(C[C@H]1NCCC[C@@H]1O)Cn1cnc2cccc(F)c2c1=O,1.3,1.3,19000
Cc1cccc2c(=O)n(CC(=O)C[C@H]3NCCC[C@@H]3O)cnc12,1.7,1.9,140
O=C(C[C@H]1NCCC[C@@H]1O)Cn1cnc2ccc(F)c(F)c2c1=O,0.33,0.39,17000
O=C(C[C@H]1NCCC[C@@H]1O)Cn1cnc2cnccc2c1=O,63,73,19000
O=C(C[C@H]1NCCC[C@@H]1O)Cn1cnc2ncccc2c1=O,70,109,22000
CC(C)(C)c1ccc2ncn(CC(=O)C[C@H]3NCCC[C@@H]3O)c(=O)c2c1,165,188,
O=C(C[C@H]1NCCC[C@@H]1O)Cn1cnc2c(F)cccc2c1=O,103,100,16000
O=C(C[C@H]1NCCC[C@@H]1O)Cn1cnc2ccc(F)cc2c1=O,4.7,5,13000
O=C(C[C@H]1NCCC[C@@H]1O)Cn1cnc2cccnc2c1=O,1.2,1.3,18000
CCN(CC)CCCC(C)Nc1ccnc2cc(Cl)ccc12 (stereo unspecified) [CHLOROQUINE],,,19000
O=C(C[C@@H]1NCCC[C@H]1O)Cn1cnc2ccccc2c1=O [FEBRIFUGINE],1.6,1.9,169
